Reference: US12473332B2, “Modified peptides and associated methods of use” (Advanced Technologies For Novel Therapeutics, LLC, priority 2019, dated 2025)
Where no end group is shown, it is not given here.

Legend:
[1] = trypan blue staining, live and dead cell count; type: cell-based; conditions: 12 to 72 hours
From the text: Therefore, in addition to capturing live images, cells were stained with trypan blue at different time intervals following treatment with ZaTa and counted by a light microscope using a hemocytometer.

AKT [2] = molecular target: AKT (Homo sapiens, UniProt P31749); experiment: in vitro AKT kinase assay with Ser-9 GSK-3 GST fusion protein substrate; PKAc peptide library screen; type: biochemical; conditions: Ser-9 GSK-3 GST substrate
Chain of AKT (Homo sapiens, UniProt P31749) (P31749 whole entry, the tested form may be a part): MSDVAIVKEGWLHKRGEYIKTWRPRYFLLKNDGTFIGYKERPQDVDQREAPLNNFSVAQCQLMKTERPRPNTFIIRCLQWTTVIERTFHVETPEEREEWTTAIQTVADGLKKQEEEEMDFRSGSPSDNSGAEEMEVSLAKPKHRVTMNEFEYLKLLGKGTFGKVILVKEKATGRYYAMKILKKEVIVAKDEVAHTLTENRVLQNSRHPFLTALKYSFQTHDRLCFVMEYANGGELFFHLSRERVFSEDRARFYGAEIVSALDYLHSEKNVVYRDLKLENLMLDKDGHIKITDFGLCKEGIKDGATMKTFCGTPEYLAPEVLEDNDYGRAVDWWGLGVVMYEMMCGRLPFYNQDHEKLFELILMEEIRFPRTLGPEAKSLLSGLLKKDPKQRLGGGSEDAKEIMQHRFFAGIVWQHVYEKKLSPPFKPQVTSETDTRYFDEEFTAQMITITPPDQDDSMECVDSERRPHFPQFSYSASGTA

AKT [3] = experiment: AKT activity in cultured neurons treated with PKA inhibitor or activator (AKT phosphorylation at Thr-308 and Ser-473); type: cell-based
Procedure: To evaluate the significance of the AKT-PKAc interaction, kinase inhibitors were employed. […] Thus, cultured neurons were treated with the selective PKA inhibitor, H-89, and the potent PKA activator, forskolin, and AKT activity was analyzed.

AKT1 = AKT1 (Homo sapiens, UniProt P31749); experiment: AKT1 in vitro kinase assay, γ-32P incorporation into Ser-21 GSK-3β substrate peptide; type: biochemical
Chain of AKT1 (P31749 whole entry): as the sequence (P31749 whole entry, the tested form may be a part) above

Neuroblastoma cells = conditions: literature; read-out: IC-50 on neuroblastoma cells; cited from earlier work
glioblastoma cells = conditions: literature; read-out: IC-50 on glioblastoma cells; cited from earlier work

Row | Compound | number of dead cells [1] | inhibitory effect on catalytic activity of AKT (AKT [2]) | other results
1 | AKRVKGRDWTLCGTPEY [ZaTa^T8D] | a significant increase in the number of dead cells was not seen |  | 
2 | Y-E-M-A-A-G-Y-P-P-F-F-A (YEMAAGYPPFFA; MISC_FEATURE - Peptide_SEQ ID NO:71) [Peptide 64] |  | significant inhibitory effects | 
3 | AKRVKGRTWTLCGTPER [ZaTa^Y17R] | a significant increase in the number of dead cells was observed |  | 
4 | O=S(=O)(NCCNC/C=C/c1ccc(Br)cc1)c1cccc2cnccc12 [Peptide H-89, H-89] |  |  | activity of AKT (activation-dependent phosphorylation at Thr-308 and Ser-473) (AKT [3]): dose-dependent increase in the activity of AKT
5 | AKRVKGRTWDLCGTPEY [ZaTa^T10D] | a significant increase in the number of dead cells was not seen |  | 
6 | G-F-A-K-R-V-K-G-R-T-W-T-L (GFAKRVKGRTWTL; MISC_FEATURE - Peptide_SEQ ID NO:59) [Peptide 52] |  |  | inhibition of AKT1 catalytic activity (AKT1): not able to inhibit AKT1
7 | Cn1nnc2c(C(N)=O)ncn2c1=O [Temodar] |  |  | IC50 (Neuroblastoma cells): 602 µM; IC50 (glioblastoma cells): 421 to 1020 µM
8 | W-A-L-G-V-L-I-Y-E-M-A-A-G-Y (WALGVLIYEMAAGY; MISC_FEATURE - Peptide_SEQ ID NO:69) [Peptide 62] |  | significant inhibitory effects | 
9 | G-V-L-I-Y-E-M-A-A-G-Y-P-P-F-F (GVLIYEMAAGYPPFF; MISC_FEATURE - Peptide_SEQ ID NO:70) [Peptide 63] |  | significant inhibitory effects | 
10 | AKRVKGRTWTLCGRPEY [ZaTa^T14R] | a significant increase in the number of dead cells was observed |  | 
11 | D-Q-Q-G-Y-I-Q-V-T-D-F-G-F-A-K (DQQGYIQVTDFGFAK; MISC_FEATURE - Peptide_SEQ ID NO:56) [Peptide 49] |  | significant inhibitory effects | 
